Assay results reported in ChEMBL document CHEMBL5608195, “Identification and biological evaluation of fused tetrahydroisoquinoline derivatives as Wnt/β-catenin signaling inhibitors to suppress colorectal cancer” (Eur J Med Chem, 2024).
The source made the active and inactive calls. No cut-off for these calls is given here.

Key:
[1] = Toxicity in male BALB/c mouse xenografted with human HCT-116 cells assessed as effect on serum AST level at 10 to 40 mg/kg, ip by biochemical analysis; format: organism-based; settings: in vivo, dose 10-40 mg/kg
HCT-116 [2] = assay: Antitumor activity against human HCT-116 cells xenografted in male BALB/c mouse assessed as induction of apoptosis by measuring increase cleaved-caspase-3 protein level at 10 to 40 mg/kg, ip by Immunohistochemical staining based analysis; format: functional, organism-based; settings: dose 10-40 mg/kg
Homo sapiens [3] = organism: Homo sapiens; assay: Binding affinity to recombinant N-terminal GST-tagged human HSP90 (1 to 224 residues) extracted from Escherichia coli BL21 (DE3) cells at 200 uM in presence of biotin probe 1 by pulldown analysis
Homo sapiens [4] = organism: Homo sapiens; assay: Induction of human HSP90 stabilization assessed as protection against pronase E-mediated hydrolysis at 25 to 50 uM incubated for 1 hr by DART assay; settings: dose 25-50 µM
HCT-116 [5] = assay: Antiproliferative activity against human HCT-116 cells assessed as inhibition of DNA proliferation at 10 uM incubated for 22 hrs by fluorescence based microscopic analysis; format: functional, cell-based
[6] = Tmax in male ICR (CD-1) mouse at 20 mg/kg, po measured upto 24 hrs by LC-MS/MS analysis; format: ADME, organism-based; settings: in vivo
HCT-116 [7] = assay: Antiproliferative activity against human HCT-116 cells incubated for 24 hrs by MTT assay; format: functional, cell-based; settings: HCT-116, 24 h
[8] = Cmax in male ICR (CD-1) mouse at 20 mg/kg, po measured upto 24 hrs by LC-MS/MS analysis; format: ADME, organism-based; settings: in vivo
HCT-116 [9] = assay: Induction of cell cycle arrest in human HCT-116 cells assessed as downregulation of CDK1 protein level by Western blot analysis; format: functional, cell-based
[10] = Toxicity in Kunming mouse assessed as drug tolerance at 200 to 400 mg/kg, ip; format: organism-based; settings: in vivo, dose 200-400 mg/kg
[11] = Toxicity in male BALB/c mouse xenografted with human HCT-116 cells assessed as histological change in heart at 10 to 40 mg/kg, ip by H and E staining based optical microscopic analysis; format: organism-based; settings: in vivo, dose 10-40 mg/kg
[12] = AUC (0 to infinity) in male ICR (CD-1) mouse at 10 mg/kg, ip measured upto 24 hrs by LC-MS/MS analysis; format: ADME, organism-based; settings: in vivo
HCT-116 [13] = assay: Induction of cell cycle arrest in human HCT-116 cells assessed as downregulation of Cyclin A2 protein level by Western blot analysis; format: functional, cell-based
RKO [14] = assay: Antiproliferative activity against human RKO cells assessed as inhibition of DNA replication at 10 uM incubated for 22 hrs by fluorescence based microscopic analysis; format: functional, cell-based
[15] = Toxicity in male BALB/c mouse xenografted with human HCT-116 cells assessed as effect on serum uric acid level at 10 to 40 mg/kg, ip by biochemical analysis; format: organism-based; settings: in vivo, dose 10-40 mg/kg
RKO [16] = assay: Inhibition of Wnt/beta-catenin signaling pathway in human RKO cells assessed as induction of beta-catenin degradation pretreated with cycloheximide followed by compound addition by Western blot analysis; format: cell-based; settings: time <= 6.0 hrs, TDE = time-dependent effect
RKO [17] = assay: Induction of cell cycle arrest in human RKO cells assessed as downregulation of CDK1 protein level by Western blot analysis; format: functional, cell-based
HCT-116 [18] = assay: Induction of cell cycle arrest in human HCT-116 cells assessed as accumulation of cells at S phase incubated for 24 hrs by PI staining based flow cytometry; format: functional; settings: dose 6-10 µM
[19] = Toxicity in male BALB/c mouse xenografted with human HCT-116 cells assessed as histological change in spleen at 10 to 40 mg/kg, ip by H and E staining based optical microscopic analysis; format: organism-based; settings: in vivo, dose 10-40 mg/kg
RKO [20] = assay: Antiproliferative activity against human RKO cells incubated for 24 hrs by MTT assay; format: functional, cell-based
HCT-116 [21] = assay: Antitumor activity against human HCT-116 cells xenografted in male BALB/c mouse assessed as tumor growth inhibition at 40 mg/kg, ip measured every two days for upto 20 days relative to control; format: functional; settings: HCT-116, 480 h, time <= 20 day, read-out: TGI
[22] = AUC (0 to infinity) in male ICR (CD-1) mouse at 20 mg/kg, po measured upto 24 hrs by LC-MS/MS analysis; format: ADME, organism-based; settings: in vivo
RKO [23] = assay: Induction of cell cycle arrest in human RKO cells assessed as downregulation of c-Myc protein level by Western blot analysis; format: functional, cell-based
[24] = Clearance in male ICR (CD-1) mouse at 5 mg/kg, iv measured upto 24 hrs by LC-MS/MS analysis; format: ADME, organism-based; settings: in vivo
HCT-116 [25] = assay: Inhibition of Wnt/beta-catenin signaling pathway in human HCT-116 cells assessed as downregulation of beta-catenin expression incubated for 24 hrs by qRT-PCR analysis; format: cell-based; settings: dose <= 10.0 µM
[26] = Toxicity in male BALB/c mouse xenografted with human HCT-116 cells assessed as effect on serum creatinine level at 10 to 40 mg/kg, ip by biochemical analysis; format: organism-based; settings: in vivo, dose 10-40 mg/kg
HCT-116 [27] = assay: Antiproliferative activity against human HCT-116 cells assessed as inhibition of DNA replication at 10 uM incubated for 22 hrs by fluorescence based microscopic analysis; format: functional, cell-based
[28] = Toxicity in male BALB/c mouse xenografted with human HCT-116 cells assessed as histological change in liver at 10 to 40 mg/kg, ip by H and E staining based optical microscopic analysis; format: organism-based; settings: in vivo, dose 10-40 mg/kg
[29] = Tmax in male ICR (CD-1) mouse at 10 mg/kg, ip measured upto 24 hrs by LC-MS/MS analysis; format: ADME, organism-based; settings: in vivo
RKO [30] = assay: Antiproliferative activity against human RKO cells assessed as inhibition of DNA proliferation at 10 uM incubated for 22 hrs by fluorescence based microscopic analysis; format: functional, cell-based

**Q.** For `CC12c3ccc(Cl)cc3CCN1CCc1c2[nH]c2ccc(Cl)cc12` (stereo not given), which Activity [1] is on record?
**A.** The Activity was “Non-Toxic”.

**Q.** And the Activity (HCT-116 [2])?
**A.** Its Activity is “Active”.

**Q.** And the Activity (Homo sapiens [3])?
**A.** Its Activity is “Active”.

**Q.** And the Activity (Homo sapiens [4])?
**A.** Its Activity is “Active”.

**Q.** And the Activity (HCT-116 [5])?
**A.** The Activity was “Active”.

**Q.** What about the Tmax [6] of the same molecule?
**A.** The Tmax was 19.8 min.

**Q.** And the IC50 (HCT-116 [7])?
**A.** Its IC50 is 8.31 µM.

**Q.** And the Cmax [8]?
**A.** Its Cmax is 832 ng/mL.

**Q.** What about the Activity (HCT-116 [9]) of the same molecule?
**A.** Its Activity is “Dose-Dependent Effect”.

**Q.** And the Activity [10]?
**A.** The Activity was “Non-Toxic”.

**Q.** And the Activity [11]?
**A.** The Activity was “Non-Toxic”.

**Q.** And the AUC(0-inf) [12]?
**A.** The AUC(0-inf) was 2900 ng·h/mL.

**Q.** And the Activity (HCT-116 [13])?
**A.** Its Activity is “Dose-Dependent Effect”.

**Q.** And the Activity (RKO [14])?
**A.** Its Activity is “Active”.

**Q.** And the Activity [15]?
**A.** Its Activity is “Non-Toxic”.

**Q.** What about the inhibition (RKO [16]) of the same molecule?
**A.** The inhibition was “Tde”.

**Q.** And the Activity (RKO [17])?
**A.** Its Activity is “Dose-Dependent Effect”.

**Q.** And the Activity (HCT-116 [18])?
**A.** The Activity was “Dose-Dependent Effect”.

**Q.** And the Activity [19]?
**A.** Its Activity is “Non-Toxic”.

**Q.** What about the IC50 (RKO [20]) of the same molecule?
**A.** The IC50 was 7.97 µM.

**Q.** And the inhibition in vivo at 40 mg/kg (HCT-116 [21])?
**A.** Its inhibition in vivo at 40 mg/kg is 71.6%.

**Q.** And the AUC(0-inf) [22]?
**A.** The AUC(0-inf) was 2720 ng·h/mL.

**Q.** What about the Activity (RKO [23]) of the same molecule?
**A.** Its Activity is “Dose-Dependent Effect”.

**Q.** What about the clearance [24] of the same molecule?
**A.** The clearance was 56.1 mL/min/kg.

**Q.** What about the inhibition (HCT-116 [25]) of the same molecule?
**A.** Its inhibition is “Dose-Dependent Effect”.

**Q.** What about the Activity [26] of the same molecule?
**A.** Its Activity is “Non-Toxic”.

**Q.** What about the Activity (HCT-116 [27]) of the same molecule?
**A.** Its Activity is “Active”.

**Q.** And the Activity [28]?
**A.** Its Activity is “Non-Toxic”.

**Q.** What about the Tmax [29] of the same molecule?
**A.** Its Tmax is 15 min.

**Q.** And the Activity (RKO [30])?
**A.** Its Activity is “Active”.
